From paper PMC5216056 (Nature Communications, 2017) come the findings set out here.

SMILES strings stand for the structures. Where “and” joins values, the source holds several entries; their conditions need not be identical. Identical values can stand only once. Some results are limits rather than exact numbers.

By IC50 is commonly meant the concentration at which inhibition is half-maximal.

T4 sequence (P08588 whole entry): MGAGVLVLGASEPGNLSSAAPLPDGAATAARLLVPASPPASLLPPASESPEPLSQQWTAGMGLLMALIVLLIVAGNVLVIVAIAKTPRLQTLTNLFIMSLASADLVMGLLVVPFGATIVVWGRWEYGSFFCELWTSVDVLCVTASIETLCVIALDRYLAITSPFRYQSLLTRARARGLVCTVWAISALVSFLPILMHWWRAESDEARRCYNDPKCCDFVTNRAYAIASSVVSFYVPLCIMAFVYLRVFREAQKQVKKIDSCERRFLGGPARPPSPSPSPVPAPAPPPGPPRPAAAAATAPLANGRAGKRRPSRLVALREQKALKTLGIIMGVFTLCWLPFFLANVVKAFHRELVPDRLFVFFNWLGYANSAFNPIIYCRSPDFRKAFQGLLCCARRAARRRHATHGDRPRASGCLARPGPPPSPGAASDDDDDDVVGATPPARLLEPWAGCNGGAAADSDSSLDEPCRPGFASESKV
T3 sequence (Q9ERZ8 whole entry): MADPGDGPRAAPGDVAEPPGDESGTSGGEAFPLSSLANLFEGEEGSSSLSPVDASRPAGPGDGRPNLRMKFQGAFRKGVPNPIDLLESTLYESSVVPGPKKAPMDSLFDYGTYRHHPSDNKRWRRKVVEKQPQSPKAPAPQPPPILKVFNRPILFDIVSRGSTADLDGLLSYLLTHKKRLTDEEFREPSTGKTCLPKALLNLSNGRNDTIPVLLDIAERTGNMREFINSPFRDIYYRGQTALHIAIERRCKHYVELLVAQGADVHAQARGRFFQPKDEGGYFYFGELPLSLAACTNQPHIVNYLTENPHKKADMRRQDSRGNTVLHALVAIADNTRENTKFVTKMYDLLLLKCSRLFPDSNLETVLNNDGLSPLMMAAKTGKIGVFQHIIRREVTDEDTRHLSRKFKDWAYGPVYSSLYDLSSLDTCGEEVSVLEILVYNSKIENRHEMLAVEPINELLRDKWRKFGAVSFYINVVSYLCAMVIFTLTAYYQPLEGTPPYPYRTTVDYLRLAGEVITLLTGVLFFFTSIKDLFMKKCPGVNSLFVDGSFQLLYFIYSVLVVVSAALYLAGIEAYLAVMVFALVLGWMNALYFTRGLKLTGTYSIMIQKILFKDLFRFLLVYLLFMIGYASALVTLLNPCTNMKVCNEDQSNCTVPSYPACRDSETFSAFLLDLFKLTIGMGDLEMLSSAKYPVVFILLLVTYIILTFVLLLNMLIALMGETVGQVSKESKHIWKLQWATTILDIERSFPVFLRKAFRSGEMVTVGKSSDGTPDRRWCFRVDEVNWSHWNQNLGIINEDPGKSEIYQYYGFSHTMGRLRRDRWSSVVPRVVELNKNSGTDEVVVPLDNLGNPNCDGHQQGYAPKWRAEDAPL

The target in the first series is hCB2R (Homo sapiens, UniProt P34972). The series can be described thus: biochemical. In kind it is binding. As to conditions: CHO membranes; Leiden, HU210 and SR144528 from Roche.
Chain of hCB2R (P34972 whole entry): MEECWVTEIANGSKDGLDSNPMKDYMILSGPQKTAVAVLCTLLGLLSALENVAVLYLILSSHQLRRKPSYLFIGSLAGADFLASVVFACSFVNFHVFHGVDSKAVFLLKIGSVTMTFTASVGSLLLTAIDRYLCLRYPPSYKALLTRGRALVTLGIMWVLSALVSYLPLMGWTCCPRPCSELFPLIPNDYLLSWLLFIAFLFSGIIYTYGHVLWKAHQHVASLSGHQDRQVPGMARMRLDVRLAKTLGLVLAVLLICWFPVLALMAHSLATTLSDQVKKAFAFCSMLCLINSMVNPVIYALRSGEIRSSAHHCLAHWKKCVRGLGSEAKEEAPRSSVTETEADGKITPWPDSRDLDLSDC
As for `Cc1ccc2c(c1)Cc1c(C(=O)NN3CCCCC3)nn(-c3ccc(Cl)cc3Cl)c1-2` [Gp-1a], the “pKi ± SEM hCB2R” value was determined as 7.66 ± 0.11.

For a further series, the system named is AR (h). The series can be described thus: CEREP panel. Particulars: 10 µM. Format: binding, human.
Regarding `Cc1ccc2c(c1)Cc1c(C(=O)NN3CCCCC3)nn(-c3ccc(Cl)cc3Cl)c1-2` [Gp-1a], the “% inhibition AR (h)” value is reported as -8%.
On the same count and under the same terms, then `CCCn1c(C)c(C(=O)c2cccc3ccccc23)c2ccccc21` [JWH015], with 0%.
`Cc1c(C(=O)c2cccc3ccccc23)c2cccc3c2n1[C@H](CN1CCOCC1)CO3` [WIN55212-2]: the “% inhibition AR (h)” value was 8%.

The target of the next series is T1, alpha 1A (h) (Homo sapiens, UniProt P35348).
T1 construct: CEREP
T1 sequence (P35348 1-466): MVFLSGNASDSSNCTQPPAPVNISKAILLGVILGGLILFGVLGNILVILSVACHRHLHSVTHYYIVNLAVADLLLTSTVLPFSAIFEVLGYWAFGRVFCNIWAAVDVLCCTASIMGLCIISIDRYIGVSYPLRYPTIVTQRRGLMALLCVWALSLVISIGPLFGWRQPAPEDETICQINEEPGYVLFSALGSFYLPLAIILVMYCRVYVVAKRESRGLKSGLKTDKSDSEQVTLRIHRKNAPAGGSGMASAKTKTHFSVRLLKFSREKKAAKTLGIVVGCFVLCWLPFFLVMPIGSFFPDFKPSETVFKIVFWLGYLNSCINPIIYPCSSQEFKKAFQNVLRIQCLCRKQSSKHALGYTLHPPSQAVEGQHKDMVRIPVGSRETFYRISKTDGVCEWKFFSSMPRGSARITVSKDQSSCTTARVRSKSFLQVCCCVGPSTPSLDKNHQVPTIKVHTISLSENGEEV
The series can be described thus: CEREP panel. In kind it is binding. As to conditions: 10 µM.
As to `Cc1ccc2c(c1)Cc1c(C(=O)NN3CCCCC3)nn(-c3ccc(Cl)cc3Cl)c1-2` [Gp-1a], the “% inhibition alpha 1A (h)” value is 11%.
For the molecule `CCCn1c(C)c(C(=O)c2cccc3ccccc23)c2ccccc21` [JWH015], the “% inhibition alpha 1A (h)” value came out at 16%.
`Cc1c(C(=O)c2cccc3ccccc23)c2cccc3c2n1[C@H](CN1CCOCC1)CO3` [WIN55212-2]: the “% inhibition alpha 1A (h)” value was found to be 15%.

Tested on in the next series: not given
Assay: not given
As to conditions: 1 μM.
Molecule `Cc1ccc2c(c1)Cc1c(C(=O)NN3CCCCC3)nn(-c3ccc(Cl)cc3Cl)c1-2` [Gp-1a] came in with a CL hepatocytes human of 32 µL/min/mio cells.
In the case of `CCCn1c(C)c(C(=O)c2cccc3ccccc23)c2ccccc21` [JWH015], the CL hepatocytes human is 16 µL/min/mio cells.
Turning to `Cc1c(C(=O)c2cccc3ccccc23)c2cccc3c2n1[C@H](CN1CCOCC1)CO3` [WIN55212-2], the CL hepatocytes human worked out at 42 µL/min/mio cells.

Tested on in a further series: not given
Assay: not given
As to conditions: 1 μM. This is another data set of the same source.
For `Cc1ccc2c(c1)Cc1c(C(=O)NN3CCCCC3)nn(-c3ccc(Cl)cc3Cl)c1-2` [Gp-1a], the CL microsomes mouse was 134 µL/min/mg protein.
In turn, `CCCn1c(C)c(C(=O)c2cccc3ccccc23)c2ccccc21` [JWH015] returned a CL microsomes mouse of 989 µL/min/mg protein.
With `Cc1c(C(=O)c2cccc3ccccc23)c2cccc3c2n1[C@H](CN1CCOCC1)CO3` [WIN55212-2], the CL microsomes mouse stood at 745 µL/min/mg protein.

The next series deals with T2, hGPR55 (Homo sapiens, UniProt Q9Y2T6).
T2 construct: host or cells: CHO-K1 (PathHunter hGPR55_bgal)
T2 sequence (Q9Y2T6 whole entry): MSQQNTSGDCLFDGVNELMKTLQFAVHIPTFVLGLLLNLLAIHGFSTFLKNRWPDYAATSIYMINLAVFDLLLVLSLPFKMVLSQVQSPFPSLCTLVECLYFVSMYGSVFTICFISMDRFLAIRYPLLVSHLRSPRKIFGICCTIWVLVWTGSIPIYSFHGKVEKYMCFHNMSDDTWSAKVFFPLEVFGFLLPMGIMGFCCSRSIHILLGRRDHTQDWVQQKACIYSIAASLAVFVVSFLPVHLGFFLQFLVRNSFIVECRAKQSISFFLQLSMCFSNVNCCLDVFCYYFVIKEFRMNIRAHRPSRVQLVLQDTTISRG
In words: cell-based. As to conditions: β-arrestin recruitment.
As to `Cc1ccc2c(c1)Cc1c(C(=O)NN3CCCCC3)nn(-c3ccc(Cl)cc3Cl)c1-2` [Gp-1a], the “GPR55 pEC50 (± SEM)” value is reported as below 5.
In the case of `CCCn1c(C)c(C(=O)c2cccc3ccccc23)c2ccccc21` [JWH015], the “GPR55 pEC50 (± SEM)” value is reported as below 5.
For the molecule `Cc1c(C(=O)c2cccc3ccccc23)c2cccc3c2n1[C@H](CN1CCOCC1)CO3` [WIN55212-2], the “GPR55 pEC50 (± SEM)” value is on record as below 5.

Another series concerns the target T3, Rat recombinant TRPV4 (Rattus norvegicus, UniProt Q9ERZ8).
T3 construct: expressed in transfected cells; host or cells: HEK293 (TRPV4-HEK-293, gift from HB Bradshaw, Indiana University)
The series can be described thus: cell-based. In kind it is cell-based.
Details: not given
On to `Cc1ccc2c(c1)Cc1c(C(=O)NN3CCCCC3)nn(-c3ccc(Cl)cc3Cl)c1-2` [Gp-1a], for which the “TRPV4 Efficacy (% ionomycin 4μM)” value is on record as below 10%.
On to `Cc1c(C(=O)c2cccc3ccccc23)c2cccc3c2n1[C@H](CN1CCOCC1)CO3` [WIN55212-2], for which the “TRPV4 Efficacy (% ionomycin 4μM)” value is below 10%.

The series is the same for the next values; noted with them: vs 4αPDD 1μM; read-out: TRPV4 IC50 for desensitization.
On to `Cc1ccc2c(c1)Cc1c(C(=O)NN3CCCCC3)nn(-c3ccc(Cl)cc3Cl)c1-2` [Gp-1a], for which the IC50 was found to be 2.2 ± 0.1 µM.
For the molecule `Cc1c(C(=O)c2cccc3ccccc23)c2cccc3c2n1[C@H](CN1CCOCC1)CO3` [WIN55212-2], the 50% inhibitory concentration (IC50) stood at 16.1 ± 1.7 µM.

The next series concerns the target T4, beta 1 (h) (Homo sapiens, UniProt P08588).
T4 construct: CEREP
In words: biochemical. In kind it is binding. Particulars: 10 µM.
For the molecule `Cc1ccc2c(c1)Cc1c(C(=O)NN3CCCCC3)nn(-c3ccc(Cl)cc3Cl)c1-2` [Gp-1a], the “% inhibition beta 1 (h)” value is on record as 30%.
As to `CCCn1c(C)c(C(=O)c2cccc3ccccc23)c2ccccc21` [JWH015], the “% inhibition beta 1 (h)” value is reported as 7%.
Still for that read-out and setting: as for `Cc1c(C(=O)c2cccc3ccccc23)c2cccc3c2n1[C@H](CN1CCOCC1)CO3` [WIN55212-2], the figure is 6%.

The target in the next series is T5, AT1 (h) (Homo sapiens, UniProt P30556).
T5 construct: CEREP
T5 sequence (P30556 1-359): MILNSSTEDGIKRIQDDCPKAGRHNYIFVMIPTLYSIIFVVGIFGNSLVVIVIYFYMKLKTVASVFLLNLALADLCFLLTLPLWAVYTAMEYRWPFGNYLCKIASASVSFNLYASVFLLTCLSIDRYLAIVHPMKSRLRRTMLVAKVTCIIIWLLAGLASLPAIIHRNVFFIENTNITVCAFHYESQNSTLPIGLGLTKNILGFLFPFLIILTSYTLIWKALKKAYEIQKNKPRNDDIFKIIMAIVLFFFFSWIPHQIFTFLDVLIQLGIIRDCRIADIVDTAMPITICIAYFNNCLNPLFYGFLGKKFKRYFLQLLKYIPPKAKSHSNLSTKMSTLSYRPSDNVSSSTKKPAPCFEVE
The series can be described thus: CEREP panel. As to conditions: 10 µM. In kind it is binding.
In the case of `Cc1ccc2c(c1)Cc1c(C(=O)NN3CCCCC3)nn(-c3ccc(Cl)cc3Cl)c1-2` [Gp-1a], the “% inhibition AT1 (h)” value came out at 20%.
The same measure, in the same setting: as for `CCCn1c(C)c(C(=O)c2cccc3ccccc23)c2ccccc21` [JWH015], the figure is 21%.
As for `Cc1c(C(=O)c2cccc3ccccc23)c2cccc3c2n1[C@H](CN1CCOCC1)CO3` [WIN55212-2], the “% inhibition AT1 (h)” value was 29%.

For another series, the system named is AEA cellular uptake in U937 cells. The series can be described thus: cells. In kind it is cell-based, human. Particulars: from dose-response.
On to `Cc1ccc2c(c1)Cc1c(C(=O)NN3CCCCC3)nn(-c3ccc(Cl)cc3Cl)c1-2` [Gp-1a], for which the “AEA reuptake Efficacy (% inhibition) U937 cells” value is on record as 64%.
For the molecule `Cc1c(C(=O)c2cccc3ccccc23)c2cccc3c2n1[C@H](CN1CCOCC1)CO3` [WIN55212-2], the “AEA reuptake Efficacy (% inhibition) U937 cells” value was determined as 52%.

Still in this series, the particulars now being: read-out: AEA reuptake IC50 (95% CI) U937 cells.
Consider `Cc1ccc2c(c1)Cc1c(C(=O)NN3CCCCC3)nn(-c3ccc(Cl)cc3Cl)c1-2` [Gp-1a], for which the IC50 came out at 1.26 µM.
As to `Cc1c(C(=O)c2cccc3ccccc23)c2cccc3c2n1[C@H](CN1CCOCC1)CO3` [WIN55212-2], the half-inhibitory concentration (IC50) worked out at 4.65 µM.

The target of another series is T6, kappa (KOP) (Rattus norvegicus, UniProt P34975).
T6 construct: CEREP (contract assay)
T6 sequence (P34975 whole entry): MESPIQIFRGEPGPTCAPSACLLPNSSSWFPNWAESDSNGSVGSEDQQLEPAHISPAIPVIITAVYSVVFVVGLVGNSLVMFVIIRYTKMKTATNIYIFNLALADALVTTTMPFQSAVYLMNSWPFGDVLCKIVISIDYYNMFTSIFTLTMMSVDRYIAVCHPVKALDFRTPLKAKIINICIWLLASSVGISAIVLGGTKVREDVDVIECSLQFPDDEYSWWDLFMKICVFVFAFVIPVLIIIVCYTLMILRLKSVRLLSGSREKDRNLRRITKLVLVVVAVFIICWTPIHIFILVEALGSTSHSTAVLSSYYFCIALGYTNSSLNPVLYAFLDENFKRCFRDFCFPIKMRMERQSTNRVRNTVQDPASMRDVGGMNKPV
The series can be described thus: CEREP panel. Particulars: 10 µM. Format: binding.
For `Cc1ccc2c(c1)Cc1c(C(=O)NN3CCCCC3)nn(-c3ccc(Cl)cc3Cl)c1-2` [Gp-1a], the “% inhibition kappa (KOP)” value was determined as 99%.
The same measure, in the same setting: as for `CCCn1c(C)c(C(=O)c2cccc3ccccc23)c2ccccc21` [JWH015], the figure is 53%; as for `Cc1c(C(=O)c2cccc3ccccc23)c2cccc3c2n1[C@H](CN1CCOCC1)CO3` [WIN55212-2], 79%.

For the next series, the target named is T7, FAAH (Homo sapiens, UniProt O00519).
T7 construct: host or cells: U937
T7 sequence (O00519 1-579): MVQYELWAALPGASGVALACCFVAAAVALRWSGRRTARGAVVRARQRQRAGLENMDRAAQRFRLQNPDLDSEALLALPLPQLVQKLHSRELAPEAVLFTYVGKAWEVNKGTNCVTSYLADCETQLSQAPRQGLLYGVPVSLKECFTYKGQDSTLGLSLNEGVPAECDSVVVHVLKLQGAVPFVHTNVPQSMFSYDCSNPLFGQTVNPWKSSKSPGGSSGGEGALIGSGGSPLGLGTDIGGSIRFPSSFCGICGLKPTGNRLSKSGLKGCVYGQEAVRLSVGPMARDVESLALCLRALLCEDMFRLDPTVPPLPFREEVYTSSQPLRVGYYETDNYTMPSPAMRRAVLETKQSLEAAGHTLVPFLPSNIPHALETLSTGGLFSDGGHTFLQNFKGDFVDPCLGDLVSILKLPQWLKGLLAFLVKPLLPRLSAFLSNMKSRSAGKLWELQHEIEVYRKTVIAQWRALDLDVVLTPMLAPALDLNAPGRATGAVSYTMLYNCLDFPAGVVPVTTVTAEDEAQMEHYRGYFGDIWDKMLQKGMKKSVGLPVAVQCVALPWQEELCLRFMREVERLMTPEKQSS
The series can be described thus: FAAH activity, U937 cell homogenate. In kind it is biochemical. As to conditions: 5 µM, U937 cell homogenate. The procedure:
FAAH activity was assessed using U937 cell homogenate (source: U937 cells were purchased from ATCC, Manassas, VA, USA). Tested compounds (at the concentrations of 1 and 5 μM) or solvent (≤1% of the final volume) were pre-incubated at 37 °C for 30 min with 100 μg of cell homogenate diluted in assay buffer (10 mM Tris-HCl and 1 mM EDTA, pH 7.6 and 1% w/v fatty acid-free BSA). Successively, a mixture of 99.5 nM […] of AEA and 0.5 nM of [ethanolamine-1-3H]-AEA (40–60 Ci mmol^−1) was added to the homogenate (final concentration of 100 nM) and incubated for 10 min at 37 °C under shaking. After the incubation time, 2 volumes of an ice-cold methanol: chloroform mixture 1:1 (v/v) were added to each sample, vigorously vortexed and centrifuged at 10,000g for 10 min at 4 °C to separate aqueous and organic phases. The aqueous phases were collected and the radioactivity associated with the hydrolysis product [3H]-ethanolamine was measured after addition of 3 ml of scintillation cocktail using the Tri-Carb 2100 TR scintillation counter. Data were collected from three independent experiments performed in triplicate and results were expressed as FAAH activity, relative to that in vehicle-treated samples (=100%).
Turning to `Cc1ccc2c(c1)Cc1c(C(=O)NN3CCCCC3)nn(-c3ccc(Cl)cc3Cl)c1-2` [Gp-1a], the “FAAH % inhibition at 5 µM” value was < 50% and 30–40%.
Same read-out and setting: then `Cc1c(C(=O)c2cccc3ccccc23)c2cccc3c2n1[C@H](CN1CCOCC1)CO3` [WIN55212-2], with below 25%.

Another series has as its system AEA cellular uptake in HMC-1 cells. The series can be described thus: cells. In kind it is cell-based, human. As to conditions: read-out: AEA reuptake IC50 (95% CI) HMC-1 cells; FAAH-deficient cells.
For the molecule `Cc1ccc2c(c1)Cc1c(C(=O)NN3CCCCC3)nn(-c3ccc(Cl)cc3Cl)c1-2` [Gp-1a], the half-maximal inhibitory concentration (IC50) is above 5 µM.
As for `Cc1c(C(=O)c2cccc3ccccc23)c2cccc3c2n1[C@H](CN1CCOCC1)CO3` [WIN55212-2], the half-maximal inhibitory concentration (IC50) is above 5 µM.

The next series concerns Na+ channel (site 2).
Assay: not given
As to conditions: 10 µM. In kind it is binding.
Take `Cc1ccc2c(c1)Cc1c(C(=O)NN3CCCCC3)nn(-c3ccc(Cl)cc3Cl)c1-2` [Gp-1a]: the “% inhibition Na+ channel (site 2)” value is reported as 40%.
For `CCCn1c(C)c(C(=O)c2cccc3ccccc23)c2ccccc21` [JWH015], the “% inhibition Na+ channel (site 2)” value is listed as 50%.
The same measure, in the same setting: then `Cc1c(C(=O)c2cccc3ccccc23)c2cccc3c2n1[C@H](CN1CCOCC1)CO3` [WIN55212-2], with 68%.
